Measured values reported in patent US20110150836A1, “METHODS OF TREATING HBV AND HCV INFECTION” (Gilead Sciences, Inc., priority 2009, published 2011).

Legend:
[1] = tested on: serum cytokines; assay: Induction of serum cytokines in mice (ELISA, Luminex/Milliplex); type: in vivo, CD-1 mice; details: Day 1, 2 hours Post-dose
Method: Compound A was dosed once per day for 14 days by oral gavage, at 0.5 mg/kg or 2.5 mg/kg, in CD-1 mice. Mouse serum samples were collected on day 1 and day 14, and serum cytokine levels were determined using the following method. The assay for interferon-a was done by ELISA (VeriKine™ Mouse Interferon Alpha (Mu-IFN-a) ELISA Kit, Product Number: 42100-1, PBL Biomedical Laboratories, New Brunswick, N.J.) and the other serum cytokines were assayed with Luminex and Milliplex bead kits. Cytokine levels were determined using a nonlinear five point parameter curve for interpolation of data using the fit=(A+((B−A)/(1+(((B−E)/(E−A))*((x/C)̂D))))). The results are shown in Table 4 where the cytokine concentrations are expressed in units of pg/mL.

[2] = tested on: interferon-alpha; assay: Induction of interferon alpha in cynomolgus monkeys, single oral dose (serum ELISA); type: in vivo; details: serum at 4 and 8 hours
Method: A single dose of Compound A was administered orally to cynomolgus monkeys (3 or more animals per dose group) and serum was collected at 4 hours and 8 hours after dosing. Serum samples were analyzed for levels of interferon-alpha by ELISA. Prior to dosing, serum interferon-alpha levels were near or below the level of detection in each animal. The limit of quantitation (LOQ) for IFN-a based on cynomolgus monkey IFN-a standard was 625 pg/mL.

[3] = tested on: interferon-alpha; assay: Induction of interferon alpha in cynomolgus monkeys, multiple oral doses once per day (serum ELISA); type: in vivo
Method: Additionally, multiple doses of Compound A were administered to Cynomolgus monkeys, and the concentrations of interferon alpha were measured. Compound A was dosed orally once per day to Cynomolgus monkeys (3 animals per dose group), and serum was collected on Days 1, 7 and 15 at 4 and 8 hours after dosing. Serum samples were analyzed for levels of interferon-alpha by ELISA. Prior to dosing on Day 1, serum interferon-alpha levels were below the level of detection in each animal.

[4] = tested on: Woodchuck Hepatitis Virus (WHV); assay: Seroconversion and antiviral activity in woodchucks chronically infected with WHV; type: in vivo, Eastern Woodchucks (Marmota monax); details: chronic WHV carrier woodchucks, oral 0.5 mg/kg/day for 28 days
Method: Compound A or placebo was administered orally to five woodchucks per group that were chronic carriers of woodchuck hepatitis virus (WHV). Compound A was administered at a dose of 0.5 mg/kg/day for 28 days. Blood samples were collected prior to dosing and multiple times during and after the 28 day dosing period. Antiviral activity of Compound A was assessed by comparing the serum WHV DNA of treated WHV carrier woodchucks with control WHV carrier woodchucks receiving vehicle. The ability of Compound A to cause seroconversion in chronically infected animals was assessed by comparing the serum antibody levels against the woodchuck hepatitis virus surface antigen (anti-WHsAg) in infected animals to the anti-WHsAg antibody levels in placebo treated animals.
The woodchucks used in this study were born to WHV-negative females and reared in environmentally controlled laboratory animal facilities. Woodchucks were inoculated at 3 days of age with 5 million woodchuck infectious doses of a standardized WHV inoculum (cWHV7P1 or WHV7P2). Woodchucks selected for use developed WHV surface antigen (WHsAg) serum antigenemia and became chronic WHV carriers. The chronic carrier status of these woodchucks was confirmed prior to initiation of drug treatment.
Serum WHV DNA concentrations were measured before treatment, during treatment, and during the post-treatment follow-up period at frequent intervals. WHV viremia in serum samples was assessed by dot blot hybridization using three replicate volumes (10 μl) of undiluted serum (sensitivity, 1.0×10^7 WHV genome equivalents per ml [WHVge/ml]) compared with a standard dilution series of WHV recombinant DNA plasmid (pWHV8).
Levels of Woodchuck Hepatitis Virus surface antigen (WHsAg) and antibodies to WHsAg (anti-WHs) were determined before treatment, during treatment, and during the post-treatment follow-up period at frequent intervals, using WHV-specific enzyme immunoassays.
Antiviral activity of Compound A was assessed by comparing the serum WHV DNA and the hepatic WHV nucleic acids of treated WHV carrier woodchucks with control WHV carrier woodchucks receiving vehicle.
Immune stimulatory activity of Compound A to cause seroconversion was assessed by comparing the serum levels of WHsAg and antibodies to WHsAg (anti-WHsAg).

CCCCOc1nc(N)c2nc(O)n(Cc3cccc(CN4CCCC4)c3)c2n1 [Compound A, 6-amino-2-butoxy-9-(3-(pyrrolidin-1-ylmethyl)benzyl)-9H-purin-8-ol]
Average Serum IFN-a Level ± Standard Deviation ([1]; oral 0.5 mg/kg): 296.3 ± 322.4 pg/mL | Average Serum IL1-β Level ± Standard Deviation ([1]; oral 0.5 mg/kg): 4.8 ± 2.7 pg/mL | Average Serum IL6 Level ± Standard Deviation ([1]; oral 0.5 mg/kg): 257.2 ± 420.9 pg/mL | Average Serum IL12p40 Level ± Standard Deviation ([1]; oral 0.5 mg/kg): 3.2 ± 0 pg/mL | Average Serum IL-10 Level ± Standard Deviation ([1]; oral 0.5 mg/kg): 3.2 ± 0 pg/mL | Average Serum TNF-a Level ± Standard Deviation ([1]; oral 0.5 mg/kg): 41.7 ± 42.4 pg/mL | Average Serum IFN-a Level ± Standard Deviation ([1]; oral 2.5 mg/kg): 1091.8 ± 413.6 pg/mL | Average Serum IL1-β Level ± Standard Deviation ([1]; oral 2.5 mg/kg): 20.8 ± 16.1 pg/mL | Average Serum IL6 Level ± Standard Deviation ([1]; oral 2.5 mg/kg): 6710.2 ± 3657.4 pg/mL | Average Serum IL12p40 Level ± Standard Deviation ([1]; oral 2.5 mg/kg): 10 ± 11.7 pg/mL | Average Serum IL-10 Level ± Standard Deviation ([1]; oral 2.5 mg/kg): 143.4 ± 102.7 pg/mL | Average Serum TNF-a Level ± Standard Deviation ([1]; oral 2.5 mg/kg): 407.1 ± 258.1 pg/mL | Average peak serum Interferon-alpha levels (Mean ± standard deviation) ([2]; single oral dose 0.005 mg/kg): 7829 ± 9192 pg/mL | Average peak serum Interferon-alpha levels (Mean ± standard deviation) ([2]; single oral dose 0.02 mg/kg): 26148 ± 13873 pg/mL | Average peak serum Interferon-alpha levels (Mean ± standard deviation) ([2]; single oral dose 0.05 mg/kg): 42741 ± 29223 pg/mL | Average peak serum Interferon-alpha levels (Mean ± standard deviation) ([2]; single oral dose 2.5 mg/kg): 772923 ± 281529 pg/mL | Average peak serum Interferon-alpha levels on designated day ([3]; oral 0.005 mg/kg once per day, Day 1): 3233 pg/mL | Average peak serum Interferon-alpha levels on designated day ([3]; oral 0.005 mg/kg once per day, Day 7): 6709 pg/mL | Average peak serum Interferon-alpha levels on designated day ([3]; oral 0.005 mg/kg once per day, Day 15): 24053 pg/mL | Average peak serum Interferon-alpha levels on designated day ([3]; oral 0.05 mg/kg once per day, Day 1): 87570 pg/mL | Average peak serum Interferon-alpha levels on designated day ([3]; oral 0.05 mg/kg once per day, Day 7): 12175 pg/mL | Average peak serum Interferon-alpha levels on designated day ([3]; oral 0.05 mg/kg once per day, Day 15): 42648 pg/mL | induction of serum interferon-alpha ([3]; oral once per day, 0.005 and 0.05 mg/kg, Days 1, 7, 15): Interferon-alpha was induced | serum WHV DNA concentrations ([4]; FIG. 1): caused a substantial reduction in serum WHV DNA concentrations | antibodies against Woodchuck Hepatitis Virus Surface Antigen (anti-WHs) ([4]; FIG. 2): stimulated production of antibodies against Woodchuck Hepatitis Virus Surface Antigen (WHsAg) | serum levels of WHsAg ([4]; FIG. 3): caused a substantial reduction in serum levels of WHsAg | seroconversion against WHV ([4]; FIGS. 1-3): induced seroconversion against WHV
